Experimental data: US6346642B1, “Mixed crystals comprising aspartame and aspartame derivative and process for producing the same” (Ajinomoto Co., Inc., priority 1997, dated 2002)
Peptide text beside a SMILES is read from it.

Columns and labels:
[1] = Properties in quality of sweetness compared to sucrose (inventors' findings)
Description: It is strong in astringency (astringent taste) and badly-balanced for quality of sweetness as compared to sucrose. On the other hand, with respect to APM, its properties for quality of sweetness is weak in early taste, and strong in later taste, although they are not so bad as those in N-(3,3-dimethylbuty)-APM. Therefore, any one of both compounds has the properties for quality of sweetness which is weak in early taste, and strong in later taste, and thus is out of quality of sweetness, taking into account the fact that sucrose is natural in sweetness.

[2] = relative to sucrose, by weight ratio; cited from earlier work

Row | SMILES | quality of sweetness (balance) [1] | astringency (astringent taste) ([1]; quality of sweetness) | early taste (tastes sweet as early as sucrose) ([1]; quality of sweetness) | later taste (tastes sweet later than sucrose) ([1]; quality of sweetness) | sweetening potency [2]
1 | COC(=O)[C@H](Cc1ccccc1)NC(=O)[C@H](CC(=O)O)NCCC(C)(C)C [N-(3,3-dimethylbutyl)-APM, N-[N-(3,3-dimethylbutyl)-L-α-aspartyl]-L-phenylalanine methyl ester] | badly-balanced | strong | extremely weak | extremely strong | 10,000 times by weight ratio that of
2 | COC(=O)[C@H](Cc1ccccc1)NC(=O)[C@@H](N)CC(=O)O [APM, aspartame] (H-Asp-Phe-OMe) | – | – | weak | strong | –
